Laboratory results reported in patent US8420692B1, “Heterocyclic and carbonate derivatives of NDGA and their use as new anti-HIV and anti-cancer agents” (The Johns Hopkins University, priority 2006, dated 2013).
Structures can show the parent of a compound that is named as a salt.

Experiments:
[1] = tested on: human breast cancer line MCF-7; assay: MTT-based cytotoxicity / proliferation assay, MCF-7; type: cell-based
Procedure: (§1) The cytotoxicity of P4N against Vero cells and human cancer cells HEP3B, HT29 and MCF7 was analyzed using an MTT [3-(4,5-dimethylthiazol-2-yl)-2,5-diphenyltetrazolium bromide]-based assay (Sigma). The absorbance of OD570 was a measurement of formazon crystals solubilized in DMSO from metabolically active cells. Procedures were discussed in Huang R C C, et al. in Antiviral Res 58, 57-64 2003.^10
(§2) We have previously shown that M4N arrests tumor cells growth at G2-M phase of the cell cycle by reducing the level of Cdc2 protein and kinase activity,^17,18 and induces apoptosis by suppressing survivin gene expression and protein stability and activating the mitochondrial apoptosis pathway.^17 M4N is able to reverse the multidrug resistance by inhibiting the Sp1-regulated MDR1 gene expression and preventing the synthesis of p-glycoprotein (Pgp).^24 To investigate the effect of water soluble NDGA derivative P4N on growth of the transformed cells, four cell lines, Vero cell (African green monkey kidney cells), human liver cancer line Hep3B, colon cancer cell line HT29, and human breast cancer line MCF-7 were selected for testing. The Vero cell line is aneuploid.

[2] = tested on: human liver cancer line Hep3B; assay: MTT-based cytotoxicity / proliferation assay, Hep3B; type: cell-based
Procedure: as §1, §2

[3] = Stability in aqueous solution (time dependent UV spectra); type: physicochemical; settings: HCl salts, 28 days at 20° C., FIG. 1
Procedure: FIG. 1: Stability of Two NDGA Derivatives G4N and P4N(HCl salts) in Aqueous Solution. Time Dependent Changes in UV spectra showing (a) G4N is unstable and (b) meso-2,3-dimethyl-1,4-bis(3,4-[2-piperidino)ethoxyphenyl])butane (P4N) (compound 5b in Scheme 1) (day 1, 2, 8, 13, 28) is stable in Milli-Q water after 28 days at 20° C.
The new NDGA derivatives (Scheme 1) were found stable in aqueous solution; >99% of these compounds remained intact after 28 days (see FIG. 1(b)). In a sharp contrast, >96% G4N (4) decomposed in aqueous solution within 24 h (see FIG. 1(a)).

[4] = tested on: colon cancer cell line HT29; assay: MTT-based cytotoxicity / proliferation assay, HT29; type: cell-based, human
Procedure: as §1, §2

Which results are given for `C[C@H](Cc1ccc(OCCN2CCCCC2)c(OCCN2CCCCC2)c1)[C@@H](C)Cc1ccc(OCCN2CCCCC2)c(OCCN2CCCCC2)c1` [Compound 5b, meso-2,3-Dimethyl-1,4-bis(3,4-[2-(piperidino)ethoxyphenyl])butane Tetrakishydrochloride Salt]?
IC50 ([1]; 48 hrs, 37° C.): 1400 nM; Concentration that effectively eliminates growth of tumor cells ([1]; MCF-7, FIG. 11): < 5 µM; IC50 ([2]; 48 hrs, 37° C.): 2000 nM; Concentration that effectively eliminates growth of tumor cells ([2]; Hep3B, FIG. 11): < 5 µM; Stability in Milli-Q water (UV spectra) [3]: stable; IC50 ([4]; 48 hrs, 37° C., read-out: IC50, proliferation of HT-29): 800 nM; Concentration that effectively eliminates growth of tumor cells ([4]; HT29, FIG. 11): < 5 µM
